Test results reported in US20110184147A1, “ENZYME SUBSTRATE FOR LABELING OF PROTEIN” (priority 2008, published 2011).

Tests used:
BSA (antigen) = experiment: Antigen recognizing ability by ELISA (rabbit-derived anti-BSA IgG antibody); type: binding; settings: rabbit-derived anti-BSA IgG antibody (polyclonal) modified by MTG
Experimental: A study was made on samples that were prepared by introducing a fluorescent substrate (FITC-ε-Acp-QG or FITC-β-Ala-QG) into a rabbit-derived anti-BSA IgG antibody (polyclonal) under the same conditions as in Experiment 2-2.
ELISA was performed by the following procedure (FIG. 3-5). • 1) To a Black Plate, 5 mg/ml of BSA (antigen) was added in an amount of 150 µl/well and left to stand overnight at 37° C. • 2) The product of 1) was washed with PBST five times. • 3) Modified anti-BSA IgG antibodies were added in an amount of 60 µl/well and left to stand at room temperature for 5 hours. • 4) The product of 3) was washed with PBST five times. • 5) Examination was made with a fluorescent imager. • 6) A […] sample of AP-labeled anti-rabbit IgG IgG antibodies were added in an amount of 150 µl/well and left to stand at 37° C. for 3 hours. • 7) The product of 6) was washed with TBST five times. • 8) The substrate was added and 10 minutes later, fluorescence derived from the enzymatic reaction was examined with a fluorescent imager.

GTG = target: T1, GTG (UniProt P08587); experiment: Reactivity of GTG for fluorescent substrate (crosslinking with β-casein); type: biochemical, guinea pig; settings: substrate 1 mM, β-casein 0.5 mg/ml, GTG 0.2 U/ml, 50 mM HEPES pH 7.4, overnight 27° C.
T1 construct: purchased
T1 sequence (P08587 1-690): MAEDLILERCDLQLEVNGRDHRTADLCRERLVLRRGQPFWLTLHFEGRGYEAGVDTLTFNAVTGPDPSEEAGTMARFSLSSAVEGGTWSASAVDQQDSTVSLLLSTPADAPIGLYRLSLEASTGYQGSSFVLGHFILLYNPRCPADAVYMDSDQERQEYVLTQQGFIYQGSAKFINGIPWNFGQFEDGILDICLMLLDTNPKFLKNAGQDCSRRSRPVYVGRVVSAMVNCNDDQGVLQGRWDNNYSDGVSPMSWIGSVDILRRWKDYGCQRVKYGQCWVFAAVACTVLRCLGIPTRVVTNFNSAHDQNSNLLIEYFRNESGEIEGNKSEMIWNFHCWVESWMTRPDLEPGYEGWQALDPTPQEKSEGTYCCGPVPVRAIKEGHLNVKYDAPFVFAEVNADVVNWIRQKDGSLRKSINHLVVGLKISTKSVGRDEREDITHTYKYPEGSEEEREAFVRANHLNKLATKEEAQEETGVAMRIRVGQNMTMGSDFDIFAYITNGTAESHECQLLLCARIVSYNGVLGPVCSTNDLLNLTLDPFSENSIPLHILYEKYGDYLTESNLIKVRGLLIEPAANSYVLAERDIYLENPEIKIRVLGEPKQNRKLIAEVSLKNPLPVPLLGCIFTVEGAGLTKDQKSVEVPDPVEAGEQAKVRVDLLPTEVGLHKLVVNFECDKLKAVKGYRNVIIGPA
Experimental: In the experiment, β-casein was used as a protein having a TGase-recognizable Lys and a reaction for crosslinking with a fluorescent substrate was performed to evaluate its reactivity for GTG.
To perform a binding reaction, FITC-β-Ala-QG, β-casein and GTG were added to 50 mM HEPES (5 mM NaCl, 10 mM CaCl2, pH 7.4) to give respective final concentrations of 1 mM, 0.5 mg/ml and 0.2 U/ml and the resulting mixture was left to stand overnight at 27° C. Two comparative samples were prepared; one was a GTG-free sample and the other was prepared by performing an MTG-catalyzed reaction. For the MTG-catalyzed binding reaction, FITC-β-Ala-QG, β-casein and MTG were added to a 10 mM phosphate buffer (pH 7) to give respective final concentrations of 1 mM, 0.5 mg/ml and 1 U/ml and the resulting mixture was left to stand overnight at 27° C. Tracing on the sample after the reaction was performed by the same procedure as in Experiment 2-2.

MTG = target: T2, MTG (Streptomyces mobaraensis, UniProt P81453); experiment: MTG-catalyzed introduction of fluorescent substrate into anti-PSA IgG antibody (optimization, substrate comparison); type: biochemical, microbial
T2 construct: purchased AJINOMOTO (supplied as a gift)
T2 sequence (P81453 77-407): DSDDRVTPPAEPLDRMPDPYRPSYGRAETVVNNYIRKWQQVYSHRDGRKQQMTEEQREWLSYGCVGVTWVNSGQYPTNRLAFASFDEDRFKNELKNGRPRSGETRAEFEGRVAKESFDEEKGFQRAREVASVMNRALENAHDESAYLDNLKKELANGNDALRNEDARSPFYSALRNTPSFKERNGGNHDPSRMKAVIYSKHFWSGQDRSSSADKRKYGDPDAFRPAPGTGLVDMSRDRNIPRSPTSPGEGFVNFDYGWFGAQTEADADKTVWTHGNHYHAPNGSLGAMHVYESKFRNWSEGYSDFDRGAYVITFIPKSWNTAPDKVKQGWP
Experimental: To a 50 mM buffer whose pH was varied over the range from 5 to 9 (pH 5 acetate buffer; pH 6-7 phosphate buffer; pH 8 Tris-HCl; pH 9 boric acid buffer), FITC-β-Ala-QG, an anti-PSA (prostate specific antigen) IgG antibody (mouse-derived, monoclonal) and MTG were added to give respective final concentrations of 0.1 mM, 0.5 mg/ml, and 1 U/ml. These ingredients were well stirred and left to stand at 4° C. for reaction. After 1-hr or 6-hr reaction, the sample was mixed with a sample buffer and heated at 95° C. for 15 minutes to stop the reaction. Thereafter, SDS-polyacrylamide gel electrophoresis (SDS-PAGE) was applied. The gel from SDS-PAGE was stained with Coomassie Brilliant Blue (CBB) and observed with a fluorescent imager.
(§1) To 50 mM Tris-HCl (pH 8), FITC-β-Ala-QG, an anti-PSA IgG antibody and MTG were added to give respective final concentrations of 1 mM, 0.5 mg/ml, and 0.001-1 U/ml. These ingredients were well stirred and left to stand at 4° C. for reaction. The reaction was stopped and evaluation was made by the same procedures as in Experiment 2-1.
as §1, with “of 0.001-1” for “of 1”, “and 1” for “and 0.001-1”
To PBS, FITC-β-Ala-QG, an anti-PSA IgG antibody (mouse-derived, monoclonal) and MTG were added to give respective final concentrations of 1 mM, 0.5 mg/ml, and 1 U/ml. These ingredients were well stirred and left to stand at 4° C. or 40° C. for reaction. After 3-, 6- and 18-hr reactions, the reaction was stopped and evaluation was made by the same procedures as in Experiment 2-1.
To PBS, FITC-β-Ala-QG, an anti-PSA IgG antibody (mouse-derived, monoclonal) and MTG were added to give respective final concentrations of 1 mM, 0.5 mg/ml, and 1 U/ml. These ingredients were well stirred and left to stand for 18 hours at 4° C. for reaction. For the purpose of comparison, two additional samples were prepared, one being free of FITC-β-Ala-QG-biotin and the other having been reacted with a biotin-free fluorescent substrate (FITC-β-Ala-QG). After the reaction, the samples were purified by ultrafiltration (product of MILLIPORE Corp.; 100 kDa cut).

NC(=O)CCC(NC(=O)CCNC(=S)Nc1ccc(-c2c3ccc(=O)cc-3oc3cc(O)ccc23)c(C(=O)O)c1)C(=O)NCC(=O)O (stereo not drawn) [FITC-β-Ala-QG]
Antigen recognizing ability of modified antibody (BSA (antigen)): maintained its antigen recognizing ability | Reactivity of fluorescent substrate for GTG (GTG): also recognized by MTG | pH of highly efficient introduction into antibody (MTG; anti-PSA IgG antibody, substrate 0.1 mM, MTG 1 U/ml, 4° C., 1 and 6 hours): ~7 | Substrate concentration dependency of antibody labeling (MTG; anti-PSA IgG antibody, substrate 0.001-1 mM, MTG 1 U/ml, pH 8, 4° C.): proceeded with the increasing substrate concentration | MTG concentration at which a highly efficient reaction proceeded (MTG; anti-PSA IgG antibody, substrate 1 mM, pH 8, 4° C., MTG 0.001-1 U/ml): 1 U | Introduction into the antibody (MTG; before the addition of the resin (lanes 1-3)): verified the introduction
